Results: PubChem BioAssay AID504686 (National Center for Advancing Translational Sciences (NCATS), 2011)

Test system: Caco-2 monolayer A->B permeability, LC-MS/MS, 90 min
Experiment: Inhibitors of Human alpha-Glucosidase: Caco-2 Cell Permeability Profiling
Conditions: active compounds read high
Source text: Alpha-glucosidase is responsible for the hydrolysis of terminal, non-reducing 1,4-linked alpha-D-glucose residues, which releases alpha-D-glucose. It is a lysosomal hydrolase that is required for the degradation of a small percentage (1-3%) of cellular glycogen in humans. Deficiency of this enzyme results in glycogen-storage disease type II (GSDII), also referred to as Pompe disease, an autosomal recessive disorder. Structurally normal glycogen is accumulated in the lysosomes and cytoplasm in affected patients, primarily in muscle tissues. Excessive glycogen storage within lysosomes may interrupt normal functioning of other organelles and leads to cellular injury. In turn, this leads to enlargement and dysfunction of the entire organ involved (eg: cardiomyopathy and muscle weakness). This bioassays provides profiling data on Caco-2 cell permeability of leads compounds developed for the alpha-Glucosidase project. This in vitro model is often predictive of in vivo absorption of the compound across the intestinal lining by using a Caco2-cell line and measuring the compound's rate of transport […]. NIH Chemical Genomics Center [NCGC] NIH Molecular Libraries Probe Production Centers Network [MLPCN] […]
1. […] The T0, LY and T90, LY plates are read by FlexStation 3 at excitation of 485 nm and emission of 535 nm to determine LY permeability. […]

CC(=O)c1ccc(N2CCN(S(=O)(=O)c3ccc4c(c3)CC(=O)N4)CC2)cc1
Papp A->B: 21.3 10^-6 cm/s
